According to article PMC3735939, “The low levels of eicosapentaenoic acid in rat brain phospholipids are maintained via multiple redundant mechanisms” (Journal of Lipid Research, 2013):

Key:
Details in all cases: MEP vs vehicle
[1] = Brain total phospholipid and phospholipid class FA concentrations (GC-FID); format: in vivo, rat
From the text: Total lipids from one brain hemisphere and from plasma were extracted by the method of Folch, Lees, and Sloane Stanley ([39]). Isolation of various neutral lipid and phospholipid classes from the total lipid extract was previously described by Chen, Liu, and Bazinet ([6]).
Brain FA concentrations from total and phospholipid classes were quantified as described by Chen, Liu, and Bazinet ([6]).

[2] = Radioactivity in brain lipid fractions after 5 min intravenous 14C-tracer infusion (TLC, LSC); format: in vivo, rat
Protocol: Twenty-four hours postsurgery, a second catheter (iv catheter 24 gauge/0.75 inch, Angiocath™; Becton Dickinson) was implanted into the tail vein where rats received either vehicle or 10 mg/kg of MEP. Ten minutes post injection of vehicle or MEP, the tail vein catheter was connected to a syringe containing radiolabeled ^14C-palmitate (n = 8), ^14C-DHA (n = 6), or ^14C-EPA (n = 7) attached to a computer-controlled variable speed pump (PHD 22/2000; Harvard Apparatus, Holliston, MA). […] Each rat received a dose of 76 μCi ^14C-palmitate, 76 μCi ^14C-DHA, or 78 μCi ^14C-EPA. […] The radiotracer infusions continued until rats were euthanized. The brain was excised and cut sagittally. Both hemispheres were stored at −80°C for radioactive and biochemical analyses. Plasma was isolated from whole blood via microcentrifugation at 6,200 rpm (2,000 g) for 5 min and stored at −80°C. Total lipids from one brain hemisphere and from plasma were extracted by the method of Folch, Lees, and Sloane Stanley ([39]). Isolation of various neutral lipid and phospholipid classes from the total lipid extract was previously described by Chen, Liu, and Bazinet ([6]). FA methyl esters and radioactive acyl-CoA analysis were previously described by Chen, Liu, and Bazinet ([6]).

[3] = Brain unesterified FA concentrations (GC-MS; EPA by LC-MS/MS) in vehicle- or MEP-treated rats; format: in vivo, rat
Protocol: At 15 weeks of age, 16 rats were randomized to receive vehicle or 10 mg/kg MEP via tail vein catheter as described above. […] Brain hemispheres were homogenized in ethanol to yield a concentration of 100 mg tissue/ml. The unesterified FAs from 100 mg of brain tissue were isolated. The unesterified FA bands were collected and extracted twice from silica by hexane:isopropanol (3:2 by volume) with 5.5% water. […] The mixtures were shaken for 15 min and dried down with nitrogen gas. FA-PFB esters (FAPEs) were reconstituted in 100 μl hexane for GC-MS analysis as described below. For measurements of unesterified EPA, brain samples were homogenized in ethanol on ice. An aliquot of 100 mg tissue was spiked with ARA-d8 (20 ng; Cayman Chemical, Ann Arbor, MI) and dried under nitrogen gas in reduced light conditions. Residues were dissolved in ethanol, acidified to pH 4 with 1 N HCl, and extracted three times with ethyl acetate. After washing to neutrality with water, the ethyl acetate fraction was dried under nitrogen and transferred to siliconized minivials for liquid chromatography-tandem mass spectrometry (LC-MS/MS) analysis as described below. Brain unesterified EPA was detected using an Agilent HPLC 1200 equipped with a Zorbax SB-Phenyl column. HPLC solvent contained 4 μl/l propionic acid. The initial conditions of elution were set at 400 μl/min gradient system consisting of (A) water and (B) acetonitrile. […] Mass spectrometry analyses were carried out on API5500 triple quadruple mass spectrometer (AB SCIEX, Concord, ON, Canada). The QTRAP analyses were conducted in electrospray ionization negative ion mode. The turbospray temperature was set to 500°C and the ion spray voltage to 4,500 V. The collision energy, declustering potential, and collision cell exit potential were optimized and were set to 15, 50, and 11, respectively. Concentration was quantified by comparing the deuterium-to-protium ratio of brain unesterified EPA with standard lines generated from authentic standards. Authentic standards in appropriate dilutions (0.002-2 ng) were prepared and analyzed simultaneously with brain samples. The lower limit of quantification (LLQ) was 0.002 ng (6.3 fmol of […] identified with an Agilent 7890A gas chromatograph (Agilent Technologies) equipped with a SP-2380 (Supelco) fused silica column (Agilent Technologies; 30 m × 0.25 mm I.D. × 0.2 μm film thickness) and an Agilent 5975C quadruple mass spectrometry detector (Agilent Technologies). The sample was injected in split mode (10:1). The injection port temperature was set to 240°C and the ionization mode was set to negative chemical ionization using methane. FAPEs were eluted using a temperature program initially set at 150°C for 1 min, increase at 12°C/min to 270°C, and then at 40°C/min to 275°C for 3 min. […]

[4] = In vivo kinetics of FA incorporation and turnover in brain phospholipids (intravenous radiotracer infusion, kinetic model); set-up: species or system rat
Outline: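 Rats were given vehicle or MEP 10 mg/kg via tail vein, then radiolabelled fatty acid was infused intravenously for 5 min to steady-state plasma radioactivity while the animals were unanesthetized, with serial jugular blood sampling. They were killed by head-focused microwave irradiation, and brain incorporation was modelled from plasma unesterified fatty acid and acyl-CoA pools.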

CCCCCCCCCCCCCCC1(C(=O)OC)CO1 (stereo not shown) [MEP, methyl-2-tetradecylglycidate, reference compound]
reduction in ARA from PtdSer [1]: 8% | reduction in linoleate from EtnGpl [1]: 9% | increase in radioactivity of PtdSer ([2]; 14C-EPA-infused rats): 49% | increase in radioactivity of PtdIns ([2]; 14C-palmitate-infused rats): 65% | fold increase in brain unesterified EPA [3]: 1.3 fold | fold increase in brain unesterified linoleate (18:2n-6) [3]: 1.4 fold | fold increase in brain unesterified palmitate [3]: 2.5 fold | fold increase in brain unesterified α-linolenate (18:3n-3) [3]: 1.5 fold | fold increase in esterification of 14C-palmitate into diacylglycerol [4]: 2 fold | fold increase in esterification of 14C-palmitate into triacylglycerol [4]: 2 fold | fold increase of t1/2 of EPA in ChoGpl [4]: 1.7 fold | fold increase of t1/2 of EPA-synthesized DHA in ChoGpl [4]: 4.3 fold | fold increase of t1/2 of EPA-synthesized DHA in EtnGpl [4]: 2.5 fold | fold increase of t1/2 of EPA-synthesized DHA in brain total phospholipids [4]: 4.2 fold | fold increase of t1/2 of EPA-synthesized n-3 DPA in PtdSer [4]: 1.6 fold | reduction of FFA of DHA in brain total phospholipids [4]: 24 % per day
